Key:
[1] = system: herpes simplex virus type I; experiment: Anti-herpes viral yield reduction in vero cells, plaque method; format: cell-based, herpes simplex virus KOS (type 1); details: 24 hours post infection
Procedure: (§1) Two strains of herpes simplex virus are used: KOS (type 1) and EKC (type 2). Prepare all of the virus stocks by infecting vero cells at an input multiplicity of 0.1 PFU/cell. Sonically disrupt the cultures at 20-24 hours post infection and store them at -70°C after inclusion of DMSO to 5% (v/v) to prevent freeze damage.
(§2) Determine the anti-herpes viral activity of the compounds by a known method (Ash and Diekema, Antiviral Research, 8: 71-83 (1987)). For example, infect vero cells with each strain of HSV at 1 PFU/Cell. At the end of the absorption period (60 min., 36°C), remove the unattached virus. Wash cell sheets twice with Eagles basal medium (EBM) and 2% fetal calf serum (FCS). Add fresh medium containing the test compounds. Finally, determine viral yields at 24 hours post infection by plaque method on vero cells with methyl cellulose overlay (0.5% in EBM + 1% FCS).

[2] = system: herpes simplex virus type II; experiment: as above; format: cell-based, herpes simplex virus EKC (type 2); details: 24 hours post infection; for Virus Titer: Viral Control 1.24x10^5
Procedure: as §1, §2

[3] = Single agent, Conc. 5.0 ng/ml, Viral Control 2.6x10^5

SMILES	inhibition at 0.0025 µg/mL ([1]; Single agent, Conc. 2.5 ng/ml) [%]	Virus Titer ([1]; Single agent, Conc. 2.5 ng/ml, Viral Control 2.6x10^5)	inhibition at 0.005 µg/mL ([1]; Single agent, Conc. 5.0 ng/ml) [%]	Virus Titer [1, 3]	inhibition at 0.0125 µg/mL ([2]; Conc. 0.0125 ug/ml) [%]	Virus Titer ([2]; Conc. 0.0125 ug/ml)	inhibition at 0.025 µg/mL ([2]; Conc. 0.025 ug/ml) [%]	Virus Titer ([2]; Conc. 0.025 ug/ml)	inhibition at 0.05 µg/mL ([2]; Conc. 0.050 ug/ml) [%]	Virus Titer ([2]; Conc. 0.050 ug/ml) [P.F.U./ml]	inhibition at 0.1 µg/mL ([2]; Conc. 0.10 ug/ml) [%]	Virus Titer ([2]; Conc. 0.10 ug/ml) [P.F.U./ml]	inhibition at 0.0125 µg/mL ([1]; Conc. 0.0125 ug/ml) [%]	Virus Titer ([1]; Conc. 0.0125 ug/ml, Viral Control 3.7x10^8)	inhibition at 0.025 µg/mL ([1]; Conc. 0.025 ug/ml) [%]	Virus Titer ([1]; Conc. 0.025 ug/ml, Viral Control 3.7x10^8)	inhibition at 0.05 µg/mL ([1]; Conc. 0.050 ug/ml) [%]	Virus Titer ([1]; Conc. 0.050 ug/ml, Viral Control 3.7x10^8) [P.F.U./ml]	inhibition at 0.1 µg/mL ([1]; Conc. 0.10 ug/ml) [%]	Virus Titer ([1]; Conc. 0.10 ug/ml, Viral Control 3.7x10^8) [P.F.U./ml]
Nc1nc2c(ncn2COCCO)c(=O)[nH]1 [ACV, 9-[(2-hydroxyethoxy)methyl]guanine, reference compound]	0	3x10^5 P.F.U./ml	30	1.85x10^5 P.F.U./ml																
Nc1ccn([C@@H]2O[C@H](CO)[C@@H](O)/C2=C\F)c(=O)n1 [Compound A, (E)-2'-deoxy-2'-fluoromethylidenecytidine]			42	1.6x10^5 P.F.U./ml	32	8.5x10^4 P.F.U./ml	96	5.5x10^3 P.F.U./ml	100	0	100	0	0	5.5x10^8 P.F.U./ml	88	4.5x10^7 P.F.U./ml	100	0	100	0
